Test results: PMC3894639 (Pharmacogenetics and genomics, 2013)
Structures can show the parent of a compound that is named as a salt. Where two headings read alike, the source gives them in different places.

What was measured:
[1] = biological target: T1, OATP1B1 (Homo sapiens, UniProt Q9Y6L6)
T1 sequence (Q9Y6L6 1-691): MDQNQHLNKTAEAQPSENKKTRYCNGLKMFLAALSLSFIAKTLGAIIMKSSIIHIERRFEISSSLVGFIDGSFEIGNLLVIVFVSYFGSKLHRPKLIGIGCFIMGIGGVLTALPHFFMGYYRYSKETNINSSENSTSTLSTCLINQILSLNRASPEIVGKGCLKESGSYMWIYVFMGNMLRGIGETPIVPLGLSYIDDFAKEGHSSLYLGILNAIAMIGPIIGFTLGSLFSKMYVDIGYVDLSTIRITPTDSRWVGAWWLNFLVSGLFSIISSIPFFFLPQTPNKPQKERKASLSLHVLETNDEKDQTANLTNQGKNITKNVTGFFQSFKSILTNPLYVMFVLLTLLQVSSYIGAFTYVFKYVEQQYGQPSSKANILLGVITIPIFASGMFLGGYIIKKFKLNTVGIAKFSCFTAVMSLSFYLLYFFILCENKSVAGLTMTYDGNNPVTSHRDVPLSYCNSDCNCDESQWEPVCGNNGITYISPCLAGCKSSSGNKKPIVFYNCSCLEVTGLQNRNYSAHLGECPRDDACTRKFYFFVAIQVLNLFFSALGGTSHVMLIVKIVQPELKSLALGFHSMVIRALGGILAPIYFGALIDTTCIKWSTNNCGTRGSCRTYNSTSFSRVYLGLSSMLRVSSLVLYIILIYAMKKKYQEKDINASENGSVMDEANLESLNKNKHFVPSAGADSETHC

[2] = biological target: T1, OATP1B1; remark: listed apart in the source
[3] = cited from earlier work
[4] = protein unbound fraction; ref literature; cited from earlier work
[5] = biological target: T1, OATP1B1; assay: Prediction of clinical drug-drug interactions; conditions: for R (CER): cerivastatin as substrate; for Iin,max: Fa 1, Ka 0.1/min, Qh 1500 ml/min
[6] = tested on: cerivastatin-induced rhabdomyolysis; conditions: cited from earlier work
[7] = 20 nmol/l [3H]-ES, concentrations up to 100 µmol/l
[8] = 5 nmol/l [3H]-CER, concentrations up to 100 µmol/l
[9] = at the oral dose listed per drug in Table 3 (clopidogrel 75 mg)
[10] = R=1+fu×Iin,max/IC50, ES as substrate, oral dose listed per drug in Table 3
[11] = concentrations up to 3 µmol/l, limited by solubility

Row | Structure (SMILES) | Inhibition of OATP1B1-mediated uptake of ES (in words) [1, 7] | Inhibition of OATP1B1-mediated uptake of cerivastatin (in words) [2, 8] | IC50 [1] | IC50 [2] | R (ES) [5, 10] | other results
1 | O=C(O)[C@H]1O[C@@H](OC(=O)[C@H](c2ccccc2Cl)N2CCc3sccc3C2)[C@H](O)[C@@H](O)[C@@H]1O [Clopidogrel acyl glucuronide, clopidogrel acyl glucuronide] | inhibited | inhibited |  |  |  | 
2 | COC(=O)[C@H](c1ccccc1Cl)N1CCC2SC(=O)C=C2C1 (stereo partly shown) [2-Oxo clopidogrel, 2-oxo clopidogrel] | inhibited | inhibited | 8.97 µM | 8.18 µM |  | Cmax ([3]; clopidogrel oral dose 600 mg): 0.05 ng/mL; fu [4]: 0.02; R (ES) ([5]; ES as substrate, clopidogrel oral dose 600 mg): 1.26; R (CER) ([5]; clopidogrel oral dose 600 mg): 1.29; Iin,max ([5]; clopidogrel oral dose 600 mg): 118.69 µmol/L
3 | Cc1ccc(-c2cc(C(F)(F)F)nn2-c2ccc(S(N)(=O)=O)cc2)cc1 [Celecoxib, celecoxib] | did not inhibit | did not inhibit |  |  |  | 
4 | COC(=O)[C@H](c1ccccc1Cl)N1CCc2sccc2C1 [Clopidogrel, Clopidogrel hydrogen sulfate] | inhibited | inhibited |  | 3.95 µM |  | Cmax ([3]; clopidogrel oral dose 600 mg): 31.4 ng/mL; IC50 at 5 min ([1]; human, probe [3H]-estrone-3-sulfate, 20 nmol/l): > 100 µM; inhibition at 5 min, 100 µmol/l ([2]; human, probe [3H]-cerivastatin, 5 nmol/l): 52.7%; Odds ratio for cerivastatin-induced rhabdomyolysis ([6]; clopidogrel use in the absence of gemfibrozil use, 95% CI 12.5-182): 47.8; Odds ratio for cerivastatin-induced rhabdomyolysis ([6]; clopidogrel use in the presence of gemfibrozil use, 95% CI 6.1-143): 29.6; R (CER) ([5]; clopidogrel oral dose 600 mg): 1.63; Iin,max ([5]; clopidogrel oral dose 600 mg): 124.40 µmol/L
5 | CO[C@H]1/C=C/O[C@@]2(C)Oc3c(C)c(O)c4c(O)c(c(/C=N/N5CCN(C)CC5)c(O)c4c3C2=O)NC(=O)/C(C)=C\C=C\[C@H](C)[C@H](O)[C@@H](C)[C@@H](O)[C@@H](C)[C@H](OC(C)=O)[C@@H]1C [Rifampin, rifampin] |  |  | 0.88 µM | 5.65 µM | 8.56 | Cmax [3, 9]: 10000 ng/mL
6 | CC(C)(O)c1ccccc1CC[C@@H](SCC1(CC(=O)O)CC1)c1cccc(/C=C/c2ccc3ccc(Cl)cc3n2)c1 [Montelukast, montelukast sodium] | inhibited | inhibited | 1.4 µM | 2.04 µM | 1.01 | Cmax ([3]; in vivo, po, 75 mg): 542 ng/mL
7 | CS(=O)(=O)c1ccc(C2=C(c3ccccc3)C(=O)OC2)cc1 [Rofecoxib, rofecoxib] | inhibited | inhibited | 5.65 µM | 1.17 µM | 1.15 | Cmax [3, 9]: 320 ng/mL
8 | COc1ccc(Cl)cc1C(=O)NCCc1ccc(S(=O)(=O)NC(=O)NC2CCCCC2)cc1 [Glyburide, glyburide] |  |  |  |  |  | fu [4]: 0.002
9 | N[C@@H](Cc1cc(I)c(Oc2cc(I)c(O)c(I)c2)c(I)c1)C(=O)O [Levothyroxine, levothyroxine] | inhibited | inhibited | 2.04 µM | 0.88 µM | 1.00 | Cmax [3, 9]: 591 ng/mL; fu [4]: 0.01
10 | CN(CCOc1ccc(CC2SC(=O)NC2=O)cc1)c1ccccn1 (stereo not shown) [Rosiglitazone, Rosiglitazone-potassium salt] |  |  | 4.27 µM | 43.4 µM |  | Cmax [3, 9]: 598 ng/mL
11 | Cc1c(OCC(F)(F)F)ccnc1C[S+]([O-])c1nc2ccccc2[nH]1 (stereo not shown) [lansoprazole] | did not inhibit | did not inhibit |  |  |  | 
12 | CCOC(=O)C1=C(COCCN)NC(C)=C(C(=O)OC)C1c1ccccc1Cl (stereo not shown) [Amlodipine, amlodipine] |  |  | 39.6 µM | 35.5 µM |  | 
13 | CCCCC1=NC2(CCCC2)C(=O)N1Cc1ccc(-c2ccccc2-c2nnn[nH]2)cc1 [irbesartan, Irbesartan] | did not inhibit | did not inhibit |  |  |  | 
14 | CCc1ccc(CCOc2ccc(CC3SC(=O)NC3=O)cc2)nc1 (stereo not shown) [Pioglitazone, pioglitazone hydrochloride] | inhibited | inhibited | 6.8 µM | 39.6 µM | 1.01 | Cmax ([3]; in vivo, po, 75 mg): 1500 ng/mL
15 | C[C@]1(O)CC[C@H]2[C@@H]3CCC4=CC(=O)CC[C@]4(C)[C@@]3(F)[C@@H](O)C[C@@]21C [Fluoxymesterone] |  |  |  |  |  | Inhibition of OATP1B1-mediated uptake of ES (in words) [1, 11]: no inhibitory effects; Inhibition of OATP1B1-mediated uptake of cerivastatin (in words) [2, 11]: no inhibitory effects
